According to patent US4262013A, “Mevalonolactone derivatives and process for the preparation thereof” (Sankyo Company Limited, priority 1977, dated 1981):
Where two headings read alike, the source gives them in different places.

Legend:
[1] = target: T1, 3-hydroxy-3-methylglutaryl coenzyme A reductase (Rattus norvegicus, UniProt P51639); test: Assay Method A: inhibitory activity to cholesterol biosynthesis in vitro, 50% inhibition of the enzyme activity (method of Knauss et al); format: biochemical
T1 construct: from tissue
T1 sequence (P51639 1-887): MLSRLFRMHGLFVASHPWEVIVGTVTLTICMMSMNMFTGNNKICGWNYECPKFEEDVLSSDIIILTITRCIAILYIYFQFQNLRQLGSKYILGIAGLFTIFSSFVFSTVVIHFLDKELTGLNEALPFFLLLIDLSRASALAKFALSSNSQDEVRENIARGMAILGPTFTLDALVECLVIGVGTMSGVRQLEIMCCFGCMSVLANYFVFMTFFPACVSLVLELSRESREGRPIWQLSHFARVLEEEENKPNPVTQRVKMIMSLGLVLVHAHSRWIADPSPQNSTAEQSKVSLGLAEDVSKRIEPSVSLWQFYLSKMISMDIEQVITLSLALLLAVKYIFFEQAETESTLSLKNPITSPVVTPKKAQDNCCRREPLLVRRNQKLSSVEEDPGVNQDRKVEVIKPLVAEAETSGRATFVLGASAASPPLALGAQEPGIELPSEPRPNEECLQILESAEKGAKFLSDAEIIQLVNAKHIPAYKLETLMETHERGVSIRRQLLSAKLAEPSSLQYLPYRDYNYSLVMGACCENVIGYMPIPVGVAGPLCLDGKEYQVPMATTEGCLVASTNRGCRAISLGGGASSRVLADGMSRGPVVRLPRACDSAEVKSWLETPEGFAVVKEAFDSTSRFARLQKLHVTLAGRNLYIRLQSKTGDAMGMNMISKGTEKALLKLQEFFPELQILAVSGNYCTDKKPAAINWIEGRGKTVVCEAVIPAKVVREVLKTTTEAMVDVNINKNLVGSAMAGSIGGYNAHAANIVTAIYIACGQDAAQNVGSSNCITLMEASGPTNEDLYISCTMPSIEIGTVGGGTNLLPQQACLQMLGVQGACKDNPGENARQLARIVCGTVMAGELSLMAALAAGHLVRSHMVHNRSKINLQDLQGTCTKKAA

[2] = tested on: cholesterol biosynthesis in L-cells of mice (929); test: Assay Method B: inhibition of 14C-cholesterol biosynthesis from 14C-acetic acid in L-cells of mice (929) (method of Kandutsch et al); format: cell-based; settings: Mus musculus, mole concentration for 50% inhibition of cholesterol biosynthesis, read-out: ID50 (M) Assay Method B
Description: The inhibitory activity of these compounds to cholesterol biosynthesis was further evaluated according to the method described in A. A. Kandutsch et al, Journal of Biological Chemistry, 248, 8408 (1973) by measuring the amount of ^14 C-cholesterol biosynthesized from ^14 C-acetic acid using L-cells of mice (929), and the activity was expressed by the mole concentration [I50 (M)] for 50% inhibition of cholesterol biosynthesis (Assay Method B).

[3] = Assay Method A, in vitro, mole concentration for 50% inhibition of the enzyme activity, read-out: ID50 (M) Assay Method A

Row | IC50 [1, 3] [M] | Structure (SMILES) | IC50 [2] [M] | IC50 [1] [M]
1 | 8.6e-06 | CC1(O)CC(=O)OC(C=Cc2ccc(OCc3ccccc3)cc2)C1 (stereo not drawn) [R, 3-Hydroxy-3-methyl-7-(p-benzyloxyphenyl)-6-hepten-5-olide] | 1.3e-05 | –
2 | 4e-06 | CC1(O)CC(=O)OC(CCCc2ccc(OCc3ccccc3)cc2)C1 (stereo not drawn) [Y, 3-Hydroxy-3-methyl-8-(p-benzyloxyphenyl)-5-octanolide] | 7e-06 | –
3 | – | CC1(O)CC(=O)OC(CCc2ccc(OCc3ccc(F)cc3)cc2)C1 (stereo not drawn) [L, 3-Hydroxy-3-methyl-7-[p-(p-fluorobenzyloxy)phenyl]-5-heptanolide] | 5e-05 | –
4 | – | CCOC(=O)C(C)(C)Oc1ccc(Cl)cc1 [Clofibrate, reference compound] | 8e-05 | 0.001
5 | 6.7e-06 | CC1(O)CC(=O)OC(CCCc2ccc(OCc3ccccc3)cc2)C1Br (stereo not drawn) [Z, 3-Hydroxy-3-methyl-4-bromo-8-(p-benzyloxyphenyl)-5-octanolide] | 1.2e-05 | –
6 | 6.6e-05 | CC1(O)CC(=O)OC(CCc2ccc(O)cc2)C1 (stereo not drawn) [F, 3-Hydroxy-3-methyl-7-(p-hydroxyphenyl)-5-heptanolide] | – | –
7 | 4.5e-05 | CC1(O)CC(=O)OC(CCc2ccc(Cl)cc2)C1 (stereo not drawn) [N, 3-Hydroxy-3-methyl-7-(p-chlorophenyl)-5-heptanolide] | 3e-05 | –
8 | 4.2e-06 | CC1(O)CC(=O)OC(CCc2ccc(OCc3ccccc3)cc2)C1 (stereo not drawn) [H, 3-Hydroxy-3-methyl-7-(p-benzyloxyphenyl)-5-heptanolide] | 6e-06 | –
9 | 6.3e-05 | CC1(O)CC(=O)OC(CCc2ccc(Cl)cc2)C1Br (stereo not drawn) [O, 3-Hydroxy-3-methyl-4-bromo-7-(p-chlorophenyl)-5-heptanolide] | – | –
10 | 5.6e-06 | CC1(O)CC(=O)OC(CCc2ccc(OCc3ccccc3)cc2)C1Br (stereo not drawn) [J, 3-Hydroxy-3-methyl-4-bromo-7-(p-benzyloxyphenyl)-5-heptanolide] | 3e-05 | –
11 | 6.7e-05 | CC1C(CCc2ccccc2)OC(=O)CC1(C)O (stereo not drawn) [E, 3-Hydroxy-3,4-dimethyl-7-phenyl-5-heptanolide] | – | –
12 | 3.3e-05 | CC1(O)CC(=O)OC(CCc2ccccc2OCc2ccccc2)C1 (stereo not drawn) [I, 3-Hydroxy-3-methyl-7-(o-benzyloxyphenyl)-5-heptanolide] | 5e-05 | –
13 | – | CC1(O)CC(=O)OC(CCc2ccc(OCc3ccc(Cl)cc3)cc2)C1 (stereo not drawn) [M, 3-Hydroxy-3-methyl-7-[p-(p-chlorobenzyloxy)phenyl]-5-heptanolide] | 1.9e-05 | –
14 | 6.4e-05 | CC1C(C=Cc2ccccc2)OC(=O)CC1(C)O (stereo not drawn) [Q, 3-Hydroxy-3,4-dimethyl-7-phenyl-6-hepten-5-olide] | – | –
15 | 3.8e-06 | Cc1cc(OCc2ccccc2)cc(C)c1CCC1CC(C)(O)CC(=O)O1 (stereo not drawn) [U, 3-Hydroxy-3-methyl-7-(p-benzyloxy-o,o'-dimethylphenyl)-5-heptanolide] | 5.4e-06 | –
16 | 6.3e-05 | COc1ccc(CCC2CC(C)(O)CC(=O)O2)cc1 (stereo not drawn) [P, 3-Hydroxy-3-methyl-7-(p-methoxyphenyl)-5-heptanolide] | – | –
17 | 0.0001 | CC1(O)CC(=O)OC(c2ccc(-c3ccccc3)cc2)C1 (stereo not drawn) [B, 3-Hydroxy-3-methyl-5-(4-biphenylyl)-5-pentanolide] | 0.00016 | –
18 | – | Cc1cc(OCc2ccccc2)cc(C)c1CCC1OC(=O)CC(C)(O)C1Br (stereo not drawn) [V, 3-Hydroxy-3-methyl-4-bromo-7-(p-benzyloxy-o,o'-dimethylphenyl)-5-heptanolide] | 1e-05 | –
19 | 2.1e-05 | COc1cc(CCC2CC(C)(O)CC(=O)O2)ccc1OCc1ccccc1 (stereo not drawn) [T, 3-Hydroxy-3-methyl-7-(p-benzyloxy-m-methoxyphenyl)-5-heptanolide] | 1.1e-05 | –
20 | 4.7e-05 | CC1(O)CC(=O)OC(CCc2ccccc2OCc2ccccc2)C1Br (stereo not drawn) [K, 3-Hydroxy-3-methyl-4-bromo-7-(o-benzyloxyphenyl)-5-heptanolide] | 8.8e-05 | –
21 | 6.2e-05 | CC1(O)CC(=O)OC(c2ccc(OCc3ccccc3)cc2)C1 (stereo not drawn) [A, 3-Hydroxy-3-methyl-5-(p-benzyloxyphenyl)-5-pentanolide] | 0.00013 | –
22 | 7.1e-05 | CC1(O)CC(=O)OC(C=Cc2cccc(OCc3ccccc3)c2)C1 (stereo not drawn) [S, 3-Hydroxy-3-methyl-7-(m-benzyloxyphenyl)-6-hepten-5-olide] | 0.00012 | –
23 | 0.0001 | CC1(O)CC(=O)OC(CCc2ccccc2)C1Br (stereo not drawn) [Compound D, 3-Hydroxy-3-methyl-4-bromo-7-phenyl-5-heptanolide] | – | –
24 | 3.9e-06 | Cc1cc(OC(=O)c2ccccc2)cc(C)c1CCC1CC(C)(O)CC(=O)O1 (stereo not drawn) [X, 3-Hydroxy-3-methyl-7-(p-benzoyloxy-o,o'-dimethylphenyl)-5-heptanolide] | 6.5e-06 | –
25 | 0.00036 | CC1(O)CC(=O)OC(CCc2ccccc2)C1 (stereo not drawn) [C, 3-Hydroxy-3-methyl-7-phenyl-5-heptanolide] | 4.2e-05 | –

Row | Structure (SMILES) | IC50 [1, 3] [M] | IC50 [2] [M] | IC50 [1] [M]
26 | COc1cc(CCC2CC(C)(O)CC(=O)O2)ccc1OC(C)=O (stereo not drawn) [W, 3-Hydroxy-3-methyl-7-(p-acetoxy-m-methoxyphenyl)-5-heptanolide] | 4.5e-05 | 8.3e-05 | –
27 | CC(=O)OC1(C)CC(=O)OC(CCc2ccc(OCc3ccccc3)cc2)C1 (stereo not drawn) [G, 3-Acetoxy-3-methyl-7-(p-benzyloxyphenyl)-5-heptanolide] | 4.5e-05 | 3.1e-05 | –
